From ChEMBL document CHEMBL1201862, “PubChem BioAssay data set” (2004)
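Test compounds were applied to cells in 96-well plates for 48 hours at 5 doses. Here, GI50 denotes the concentration required for 50% inhibition of growth.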 Activity calls are given as the source filed them. No stated cut-off is given here; in the data, active = GI50 up to about 1.1 µM and inactive = higher.

Tests used:
Assay in all cases: inhibition of tumour cell growth, NCI panel, 48 h
DU-145 = test system: DU-145
HCC 2998 = test system: HCC 2998
HCT-116 = test system: HCT-116
HOP-62 = test system: HOP-62
IGROV-1 = test system: IGROV-1
KM12 = test system: KM12
LOX IMVI = test system: LOX IMVI
MCF7 = test system: MCF7
Malme-3M = test system: Malme-3M
NCI-H23 = test system: NCI-H23
NCI/ADR-RES = test system: NCI/ADR-RES
OVCAR-3 = test system: OVCAR-3
OVCAR-4 = test system: OVCAR-4
OVCAR-5 = test system: OVCAR-5
OVCAR-8 = test system: OVCAR-8
PC-3 = test system: PC-3
SK-MEL-28 = test system: SK-MEL-28
SK-MEL-2 = test system: SK-MEL-2
SN12C = test system: SN12C
SNB-75 = test system: SNB-75

Measured: GI50

Cn1ccnc1Sc1ccc(/C=N\NC(=O)c2cccc(F)c2)cc1[N+](=O)[O-]
inactive: DU-145 71.6 µM | HCC 2998 > 100 µM | HCT-116 83.9 µM | HOP-62 37.3 µM | IGROV-1 18.8 µM | KM12 > 100 µM | LOX IMVI > 100 µM | MCF7 27.8 µM | Malme-3M > 100 µM | NCI-H23 47.2 µM | NCI/ADR-RES 79.3 µM | OVCAR-3 50 µM | OVCAR-4 25.3 µM | OVCAR-5 > 100 µM | OVCAR-8 21.7 µM | PC-3 24 µM | SK-MEL-28 79.4 µM | SK-MEL-2 30.8 µM | SN12C 50.1 µM | SNB-75 27 µM

Cc1sc(Nc2ccc(Nc3nc(-c4ccccc4)c(C)s3)cc2)nc1-c1ccccc1
inactive: DU-145 74 µM | HCC 2998 16.9 µM | HCT-116 62.2 µM | HOP-62 > 100 µM | IGROV-1 > 100 µM | KM12 > 100 µM | LOX IMVI 40.6 µM | MCF7 21.8 µM | Malme-3M > 100 µM | NCI-H23 28.7 µM | NCI/ADR-RES 41.4 µM | OVCAR-3 > 100 µM | OVCAR-4 > 100 µM | OVCAR-5 > 100 µM | OVCAR-8 > 100 µM | PC-3 16.6 µM | SK-MEL-28 > 100 µM | SK-MEL-2 21.7 µM | SN12C 31.3 µM | SNB-75 48.4 µM

Cn1c2ccccc2c2c(-c3ccccc3)cc3c(c21)C(=O)C=CC3=O
inactive: DU-145 5.4 µM | HCC 2998 > 4.88 µM | HCT-116 1.45 µM | HOP-62 > 7.4 µM | IGROV-1 2.3 µM | KM12 4.43 µM | LOX IMVI 3.26 µM | MCF7 1.72 µM | Malme-3M 2.06 µM | NCI-H23 1.94 µM | NCI/ADR-RES 3.33 µM | OVCAR-3 2.05 µM | OVCAR-4 2.46 µM | OVCAR-5 > 8.51 µM | OVCAR-8 2.07 µM | PC-3 3.02 µM | SK-MEL-28 2 µM | SK-MEL-2 3.03 µM | SN12C 2.39 µM | SNB-75 > 5.66 µM

O=C(O)C(O)C(O)C(O)C(O)CO.[Ba+2] (stereo not given)
inactive: DU-145 > 100 µM | HCC 2998 > 100 µM | HCT-116 > 100 µM | HOP-62 > 100 µM | IGROV-1 > 100 µM | KM12 > 100 µM | LOX IMVI > 100 µM | MCF7 > 100 µM | Malme-3M > 100 µM | NCI-H23 > 100 µM | NCI/ADR-RES > 100 µM | OVCAR-3 > 100 µM | OVCAR-4 > 100 µM | OVCAR-5 > 100 µM | OVCAR-8 > 100 µM | PC-3 > 100 µM | SK-MEL-28 > 100 µM | SK-MEL-2 > 100 µM | SN12C > 100 µM | SNB-75 > 100 µM

N=C(Cc1ccccc1)NCC(=O)O
inactive: DU-145 > 100 µM | HCC 2998 > 100 µM | HCT-116 > 100 µM | HOP-62 > 100 µM | IGROV-1 > 100 µM | KM12 > 100 µM | LOX IMVI > 100 µM | MCF7 > 100 µM | Malme-3M > 100 µM | NCI-H23 > 100 µM | NCI/ADR-RES > 100 µM | OVCAR-3 > 100 µM | OVCAR-4 > 100 µM | OVCAR-5 > 100 µM | OVCAR-8 > 100 µM | PC-3 > 100 µM | SK-MEL-28 > 100 µM | SK-MEL-2 > 100 µM | SN12C > 100 µM | SNB-75 > 100 µM

CC1CN=C(N(C(=O)Nc2ccccc2)c2ccc(Cl)c(Cl)c2)S1 (stereo not given)
inactive: DU-145 45.8 µM | HCC 2998 24.8 µM | HCT-116 23.1 µM | HOP-62 97.3 µM | IGROV-1 41.6 µM | KM12 30.5 µM | LOX IMVI 25.9 µM | MCF7 19.8 µM | Malme-3M 38 µM | NCI-H23 32.8 µM | NCI/ADR-RES 20.7 µM | OVCAR-3 > 10 µM | OVCAR-4 75.3 µM | OVCAR-5 34.1 µM | OVCAR-8 35.6 µM | PC-3 26.8 µM | SK-MEL-28 40.6 µM | SK-MEL-2 18.9 µM | SN12C 16.6 µM | SNB-75 > 100 µM

COc1ccc2c(c1O)C13CCN(C)C(C2)C1CCC1(C3)OCCO1 (stereo not given)
inactive: DU-145 > 100 µM | HCC 2998 > 100 µM | HCT-116 > 100 µM | HOP-62 > 100 µM | IGROV-1 > 100 µM | KM12 > 100 µM | LOX IMVI > 100 µM | MCF7 > 100 µM | Malme-3M > 100 µM | NCI-H23 > 100 µM | NCI/ADR-RES > 100 µM | OVCAR-3 > 100 µM | OVCAR-4 > 100 µM | OVCAR-5 > 100 µM | OVCAR-8 > 100 µM | PC-3 > 100 µM | SK-MEL-28 > 100 µM | SK-MEL-2 > 100 µM | SN12C > 100 µM | SNB-75 > 100 µM

CCOC(=O)c1cc(C2CCN(CC(C)CC)C2=S)c(-c2cc(C)no2)[nH]1 (stereo not given)
inactive: DU-145 > 100 µM | HCC 2998 > 100 µM | HCT-116 88.9 µM | HOP-62 > 100 µM | IGROV-1 > 100 µM | KM12 49.2 µM | LOX IMVI 41.8 µM | MCF7 89.3 µM | Malme-3M > 100 µM | NCI-H23 > 100 µM | NCI/ADR-RES 41.3 µM | OVCAR-3 > 100 µM | OVCAR-4 > 100 µM | OVCAR-5 > 100 µM | OVCAR-8 68.4 µM | PC-3 41.6 µM | SK-MEL-28 > 100 µM | SK-MEL-2 > 100 µM | SN12C > 100 µM | SNB-75 57.9 µM

c1ccc(C[n+]2ccc3c(c2)CCCC3)cc1
inactive: DU-145 > 100 µM | HCC 2998 22.9 µM | HCT-116 93.1 µM | HOP-62 > 100 µM | IGROV-1 > 100 µM | KM12 62.2 µM | LOX IMVI 92.7 µM | MCF7 52.1 µM | Malme-3M 21.4 µM | NCI-H23 39.4 µM | NCI/ADR-RES > 100 µM | OVCAR-3 36.8 µM | OVCAR-4 56 µM | OVCAR-5 > 100 µM | OVCAR-8 > 100 µM | PC-3 78 µM | SK-MEL-28 > 100 µM | SK-MEL-2 84.3 µM | SN12C > 100 µM | SNB-75 54.1 µM

CCCOc1cc2c(cc1O)CC[C@@H]1[C@@H]2CC[C@]2(C)[C@@H](O)CC[C@@H]12
inactive: DU-145 3.27 µM | HCC 2998 4.56 µM | HCT-116 1.64 µM | HOP-62 2.21 µM | IGROV-1 5.48 µM | KM12 4.15 µM | LOX IMVI 2.74 µM | MCF7 2.18 µM | Malme-3M 6.82 µM | NCI-H23 3.37 µM | NCI/ADR-RES 1.17 µM | OVCAR-3 1.55 µM | OVCAR-4 15.1 µM | OVCAR-5 27.4 µM | OVCAR-8 4.98 µM | PC-3 4.76 µM | SK-MEL-28 8.26 µM | SK-MEL-2 2.17 µM | SN12C 4.97 µM | SNB-75 2.36 µM
